Consider one compound from publication PMC7726319, “Discovery of 5,5′-Methylenedi-2,3-Cresotic Acid as a Potent Inhibitor of the Chemotactic Activity of the HMGB1·CXCL12 Heterocomplex Using Virtual Screening and NMR Validation” (Frontiers in Chemistry, 2020).

A value given as a limit tells only on which side of the number the result lay.

The experiment deals with T1, HMGB1 (Mus musculus, UniProt P63158).
T1 construct: 6His-tagged form for MST
T1 sequence (P63158 2-215): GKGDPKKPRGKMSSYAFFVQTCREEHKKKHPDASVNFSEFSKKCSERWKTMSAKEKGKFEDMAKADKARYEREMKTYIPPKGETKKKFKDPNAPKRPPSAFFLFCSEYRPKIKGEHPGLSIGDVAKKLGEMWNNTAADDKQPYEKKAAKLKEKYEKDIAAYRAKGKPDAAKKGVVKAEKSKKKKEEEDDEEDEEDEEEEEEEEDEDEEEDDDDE
Briefly: 1H-15N HSQC NMR titration (CSP fit). Conditions: read-out: apparent Kd. The experiment is classed as binding.

As for `O=C(/C=C/c1ccc(O)c(O)c1)O[C@H](Cc1ccc(O)c(O)c1)C(=O)O` [compound 6, rosmarinic acid], the Kd is more than 10 mM.
